The values that follow are results of earlier work, collected in US20090318556A1, “BIOMARKERS FOR DETECTING RADIATION EXPOSURE: METHODS AND USES THEREOF” (priority 2008, published 2009).

The target of data set [1] is T1, PPARα (Mus musculus, UniProt P23204).
T1 construct: host or cells: mice (whole animal, endogenous receptor)
T1 sequence (P23204 1-468): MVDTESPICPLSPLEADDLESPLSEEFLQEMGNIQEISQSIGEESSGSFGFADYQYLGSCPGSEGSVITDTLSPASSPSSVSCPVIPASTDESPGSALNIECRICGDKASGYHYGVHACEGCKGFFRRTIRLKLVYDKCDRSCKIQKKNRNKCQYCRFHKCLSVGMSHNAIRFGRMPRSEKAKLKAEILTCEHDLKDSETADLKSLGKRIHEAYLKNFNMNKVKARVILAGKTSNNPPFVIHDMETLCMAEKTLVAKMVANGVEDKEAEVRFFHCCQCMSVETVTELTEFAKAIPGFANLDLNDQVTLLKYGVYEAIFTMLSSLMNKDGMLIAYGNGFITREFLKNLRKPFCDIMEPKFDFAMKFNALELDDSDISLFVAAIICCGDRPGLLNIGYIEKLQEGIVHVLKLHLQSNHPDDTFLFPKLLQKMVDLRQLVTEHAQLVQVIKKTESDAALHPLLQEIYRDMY
The following applies: mice.

The conditions of data set [2]: in vivo, iv.

The structures appear in SMILES notation.

For the compound `CCCCCC(=O)NCC(=O)O` [N-Hexanoylglycine], the “urinary excretion reduced after activation of PPARα” value in data set [1] is recorded as 20 fold.

Regarding `Cc1cn([C@H]2C[C@H](O)[C@@H](CO)O2)c(=O)[nH]c1=O` [[^3H]thymidine], the “radioactivity in urine relative to plasma” value in data set [2] was “approximately 100 times”.
